# Experimental data as given in patent publication US7094869B2, “Low molecular weight peptidomimetic growth hormone secretagogues” (Genentech, Inc., priority 1994, dated 2006).
# Read-outs that look alike come from different tables or passages of the source.
# Target: rat pituitary cells (Rattus norvegicus, UniProt O08725)
# In short: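 Primary rat anterior pituitary cells, cultured three days in DME low glucose/10% FBS, were washed, pre-incubated twice for 15 min, then challenged 15 min with test compounds (DMSO ≤0.1%) at 37 °C. Released GH was measured by two-site ELISA; EC50 came from 4-parameter fits, mean of three to four independent determinations.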
# Chain of rat pituitary cells (O08725 whole entry): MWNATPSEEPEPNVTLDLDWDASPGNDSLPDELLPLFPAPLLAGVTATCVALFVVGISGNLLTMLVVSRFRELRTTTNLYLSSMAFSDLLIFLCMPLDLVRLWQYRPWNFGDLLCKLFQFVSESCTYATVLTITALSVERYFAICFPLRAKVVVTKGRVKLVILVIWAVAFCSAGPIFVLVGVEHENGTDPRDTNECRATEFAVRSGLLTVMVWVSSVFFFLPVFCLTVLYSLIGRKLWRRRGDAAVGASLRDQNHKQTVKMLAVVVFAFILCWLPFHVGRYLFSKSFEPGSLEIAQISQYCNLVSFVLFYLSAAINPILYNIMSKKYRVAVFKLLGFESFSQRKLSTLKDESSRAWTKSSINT
structure (smiles),measurement,setting,value
"NCCCC[C@H](NC(=O)[C@H](Cc1ccccc1)NC(=O)[C@@H](Cc1ccc2ccccc2c1)NC(=O)[C@@H](Cc1ccc2ccccc2c1)NC(=O)C1CCNCC1)C(N)=O [(inip) b b F K amide, (inip)-DβNal-DβNal-Phe-Lys-amide]",concentration at which GH release is significantly (P<0.05) increased,15 min exposure,0.3 nM
same,concentration by which GH release reaches a plateau,15 min exposure,1 nM
same,fold more potent than GHRP-6,ratio of pit cell EC50s,over 30 fold
same,EC50,"read-out: EC50 of the representative GH dose response, single representative experiment, 15 min exposure",0.16 nM
same,EC50,"read-out: mean EC50, mean ± SE of independent EC50s",0.18 ± 0.04 nM
